Results as given in patent US20220380348A1, “AXL INHIBITOR FORMULATIONS” (Sumitomo Dainippon Pharma Oncology, Inc., priority 2019, published 2022).
Read-outs that look alike come from different tables or passages of the source.

What was measured:
[1] = Kinetic solubility in bio-relevant buffers (FaSSIF, FeSSIF, SGF); format: physicochemical; conditions: 37° C.
[2] = pH solubility in pH 2, 4, 6, 8 and 10 buffers; format: physicochemical; conditions: 37° C.; for Form change (FC) of residual solid, pH 4.0: pH 4.0 buffer; for Form change (FC) of residual solid, pH 6.0: pH 6.0 buffer; for Form change (FC) of residual solid, pH 8.0: pH 8.0 buffer; for Form change (FC) of residual solid, pH 10.0: pH 10.0 buffer
[3] = Dynamic Vapor Sorption (DVS), hygroscopicity/water uptake; format: physicochemical; conditions: for water uptake at 80% RH: DVS; for water uptake at 80% RH / Form change (FC) after DVS: 25° C.; for Form change (FC) after DVS: at the end of the DVS test, up to 80% RH; for Hygroscopicity: DVS up to 80% RH at 25° C.
Experimental: The Dynamic Vapour Sorption studies were performed using a Surface Measurement Systems Ltd. DVS-1 No Video, equipment #2126. The sample is loaded into balance pan, typically 20-30 mg, and equilibrated at 0% RH. […] After completion of the sorption cycle, the sample was dried using the same method. The software used for data collection is DVSWin v3.01 No Video. Data analysis is performed using DVS Standard Analysis Suite v6.3.0 (Standard).

[4] = Solid state stability at 40° C./75% RH for 3 weeks (HPLC purity, form change); format: physicochemical; conditions: for chemical stability (HPLC purity change, in words): 3 weeks at 40° C. and 75% relative humidity; for Form Change at 3 weeks / HPLC Purity at 3 weeks: 3 weeks under 40° C./75% RH; for Initial HPLC Purity: before storage
Experimental: Agilent 1260 HPLC was utilized and detailed chromatographic conditions for purity and solubility measurement are listed in Table 15 below.
The table below summarizes the characterization and solid state stability results observed for FB and Forms A, B, and D. Samples were prepared and data was obtained according to the procedures and processes listed above unless otherwise specified. More procedures, processes, and results are listed below in Table 16.

[5] = Moisture sorption isotherm of crystalline forms; format: physicochemical; conditions: for crystal form by XRPD after the moisture absorption/desorption cycle: XRPD before and after moisture sorption isotherm
[6] = Stability studies of crystalline forms (Table 17, stability by HPLC); format: physicochemical; conditions: for Stability by HPLC (in words): stability studies of Table 17; for Stability Results, 40° C.: stored at 40° C.; for Stability Results, 40° C./75% RH: stored at 40° C./75% RH; for Stability Results, 60° C.: stored at 60° C.; for Stability Results, 60° C./75% RH: stored at 60° C./75% RH
[7] = Salt screening, stability of salt forms; format: physicochemical; conditions: salt screening of Compound 1
Experimental: The salt screen was performed using the Crystal16 equipment.

[8] = Pharmacokinetic testing of salt forms, oral dosing in rats (Example 5); format: in vivo; conditions: fasted male Sprague-Dawley rats, mean values
[9] = dose mg/kg: Compound 1 18.2, Phosphate 14.3, Tartrate 18.7, Malate 18.6, Succinate 18.7, Benzenesulfonate 17.6

| SMILES | Form change (FC) of residual solid, FaSSIF ([1]; FaSSIF, 24 hours) | Form change (FC) of residual solid, pH 4.0 ([2]; 24 hours) | Form change (FC) of residual solid, pH 6.0 ([2]; 24 hours) | Form change (FC) of residual solid, pH 8.0 ([2]; 24 hours) | Form change (FC) of residual solid, pH 10.0 ([2]; 24 hours) | chemical stability (HPLC purity change, in words) [4] | Form Change at 3 weeks [4] | HPLC Purity at 3 weeks [4] [area %] | Initial HPLC Purity [4] [area %] | Moisture sorption isotherm (in words) [5] | crystal form by XRPD after the moisture absorption/desorption cycle [5] | Stability Results, Initial [6] [%] | Stability Results, 40° C. [6] [%] | Stability Results, 40° C./75% RH [6] [%] | Stability Results, 60° C. [6] [%] | Stability Results, 60° C./75% RH [6] [%] | further results |
| --- | --- | --- | --- | --- | --- | --- | --- | --- | --- | --- | --- | --- | --- | --- | --- | --- | --- |
| CN1CCN(Cc2ccc(Nc3ncc(Cl)c(Nc4ccccc4S(=O)(=O)N(C)C)n3)cc2)CC1.O=C(O)C(O)C(O)C(=O)O [Form D, 2-((5-chloro-2-((4-((4-methylpiperazin-1-yl)methyl)phenyl)amino)pyrimidin-4-yl)amino)-N,N-dimethylbenzenesulfonamide mono-tartrate salt] | Yes | Yes | Yes | Yes | Yes | no significant HPLC purity decrease | No | 98.3 | 98.8 | hygroscopic | transformed to the other forms | 98.4 | 98.2 | 98.4 | 98.2 | 98.2 | Kinetic solubility in FaSSIF compared between forms (in words) ([1]; FaSSIF): lower solubility than other Forms A and B; water uptake at 80% RH ([3]; mono-tartrate salt): 5.2%; Form change (FC) after DVS ([3]; mono-tartrate salt): form change observed and Yes; Stability by HPLC (in words) ([6]; listed as D, mono-tartrate salt): Stable; Stability by HPLC (in words) ([6]; mono-tartrate salt): No significant changes |
| CN1CCN(Cc2ccc(Nc3ncc(Cl)c(Nc4ccccc4S(=O)(=O)N(C)C)n3)cc2)CC1.O=P(O)(O)O [Phosphate Salt] |  |  |  |  |  |  |  |  |  |  |  |  |  |  |  |  | stability of the salt form (in words) [7]: undesirable stability characteristics |
| CN1CCN(Cc2ccc(Nc3ncc(Cl)c(Nc4ccccc4S(=O)(=O)N(C)C)n3)cc2)CC1 [Compound 1, 2-((5-chloro-2-((4-((4-methylpiperazin-1-yl)methyl)phenyl)amino)pyrimidin-4-yl)amino)-N,N-dimethylbenzenesulfonamide] | No | Yes | No | No | No | no significant HPLC purity decrease | No | 98.6 | 98.3 |  |  |  |  |  |  |  | Form change (FC) of residual solid, FeSSIF ([1]; FeSSIF, 24 hours): No; Form change (FC) of residual solid, SGF ([1]; SGF, 24 hours): No; bioavailability ([8]; rat, plasma, 18.2 mg/kg, dose mg/kg: Compound 1 18.2, Phosphate 14.3, Tartrate 18.7, Malate 18.6, Succinate 18.7, Benzenesulfonate 17.6): 26.9%; AUC(0-t) ([8]; rat, plasma, 18.2 mg/kg, dose mg/kg: Compound 1 18.2, Phosphate 14.3, Tartrate 18.7, Malate 18.6, Succinate 18.7, Benzenesulfonate 17.6, read-out: AUC0-24 hours): 458 ng·h/mL; Cmax ([8]; rat, plasma, 18.2 mg/kg, dose mg/kg: Compound 1 18.2, Phosphate 14.3, Tartrate 18.7, Malate 18.6, Succinate 18.7, Benzenesulfonate 17.6, read-out: Cmax): 116 ng/mL; Tmax ([8]; rat, plasma, 18.2 mg/kg, dose mg/kg: Compound 1 18.2, Phosphate 14.3, Tartrate 18.7, Malate 18.6, Succinate 18.7, Benzenesulfonate 17.6, read-out: Tmax): 50 min; Form change (FC) of residual solid, pH 2.0 ([2]; pH 2.0 buffer, 24 hours): Yes; Hygroscopicity ([3]; listed as Free Base): Non-hygroscopic/; Hygroscopicity ([3]; listed as free base): non-hygroscopic; water uptake at 80% RH ([3]; listed as Free Base): 0.07%; water uptake at 80% RH ([3]; listed as free base): less than 0.2%; Form change (FC) after DVS ([3]; listed as Free Base): No; Form change (FC) after DVS ([3]; listed as free base): no form change |
| CN1CCN(Cc2ccc(Nc3ncc(Cl)c(Nc4ccccc4S(=O)(=O)N(C)C)n3)cc2)CC1.O=C(O)C(O)C(O)C(=O)O.O=C(O)C(O)C(O)C(=O)O [Form A, 2-((5-chloro-2-((4-((4-methylpiperazin-1-yl)methyl)phenyl)amino)pyrimidin-4-yl)amino)-N,N-dimethylbenzenesulfonamide di-tartrate salt] |  | Yes | Yes | Yes | Yes | no significant HPLC purity decrease | No | 99.7 | 99.6 | hygroscopic | maintained | 99.3 | 99.3 | 99.3 | 99.3 | 99.3 | pH solubility compared between polymorphs (in words) ([2]; pH 2, 4 and 6 buffers): higher solubility than other polymorphs; water uptake at 80% RH ([3]; di-tartrate salt): 4.6%; Form change (FC) after DVS [3]: No; Stability by HPLC (in words) ([6]; di-tartrate salt): No significant changes; Stability by HPLC (in words) ([6]; listed as A, di-tartrate salt): Stable |
| CN1CCN(Cc2ccc(Nc3ncc(Cl)c(Nc4ccccc4S(=O)(=O)N(C)C)n3)cc2)CC1.O=C(O)C[C@H](O)C(=O)O [Malate Salt] |  |  |  |  |  |  |  |  |  |  |  |  |  |  |  |  | AUC0-24 hours [8, 9]: 515 ng·h/mL; Cmax [8, 9]: 134 ng/mL; Tmax [8, 9]: 30 min |
